Assay results: US8541607B2, “Disulfide, sulfide, sulfoxide, and sulfone derivatives of cyclic sugars and uses thereof” (Lacer, S.A., priority 2003, dated 2013)

Assays:
[1] = test system: platelet adhesion to HUVEC activated by LDLmm; assay: Inhibition of platelet adhesion to HUVEC activated by LDLmm; type: cell-based, human; settings: HUVEC activated by LDLmm (50 μg/ml); mean ± s.e.m.
Excerpt: The methods used in the assays to determine the effect of the compounds on platelet and monocyte adhesion to human endothelial cells are substantially the same as described in the following references: • Del Maschio A. et al., J Cell Biol 1996; 135: 497-510 • Bombeli T. et al., Blood 1999; 93: 3831-3838 • Colomé C. et al; Atherosclerosis 2000; 149: 295-302; and • Martin-Satue M. at al; British Journal of Cancer 1999; 80; 1169-1174
The adhesion of the U937-monocyte cells to confluent human microvasculature endothelial cells (HMEC-1) activated by means of TNF-α (50 ng/ml) and the platelets to human umbilical endothelial cells (HUVEC) were the methods used to determine the inhibitory effect of compounds on cellular adhesion. The adhesion of monocytes previously labeled with calcein-2M (Molecular Probes) to HMEC-1 activated by TNF-α, was assessed by determination of the associated-cell fluorescence. The adhesion of washed human platelets previously labeled with MoAb against CD36-FITC to activated-HUVEC (50 μg/ml of LDL minimally modified, LDLmm) was determined by Laser Scanning Cytometry (LSC, Olympus) determining the associated-cell fluorescence. Results are expressed as the percentage of inhibition respect to control (adhesion of the cells in the absence of compounds).

[2] = test system: heart (AVP-induced coronary vasoconstriction); assay: In vivo protection against ischemia-reperfusion damage in the heart (arginine-vasopressin induced S-wave depression); settings: p.o.; for S-wave decrement: 1 h before AVP 0.3 U/kg, vehicle 46.2 ± 4.9
Procedure: Experiments were performed according to the model previously described by Hirata Y at al (Journal of Cardiovascular Pharmacology, 1998, 31: 322-326)
After a food fasting period of 6 hours, animals were divided into groups of at least 8 animals each. Doses of products were given by oral sounding 1 h before the ischemia induction. Animals were anaesthetized with pentobarbital (40 mg/kg, i.p.) and the standard limb lead II electrocardiogram was recorded to detect the S-wave depression. 0.3 U/kg arginine-vasopressin (AVP) (Sigma Chemicals, St Louis, Mo., USA) was injected into the carotid artery to induce vasoconstriction of small coronary arteries and increase in coronary resistance. In all the groups received AVP 60 min after, the test drug. In all groups, after AVP injection of 10 minutes ECG recording was performed.
The results are shown in table 16 and are expressed as S-wave decrements (μvolts).

## CC(=O)S[C@H]1CO[C@H]2[C@@H]1OC[C@H]2O[N+](=O)[O-] [(12), 2-acetylthio-isosorbide-5-mononitrate]
[1]
  % of inhibition to control, platelet adhesion: 87.5% ± 5.1%
[2]; 20 mg/kg
  Protection of S-wave decrement: 52%
  S-wave decrement: 22.6 ± 5.9 μV
[2]; 100 mg/kg
  Protection of S-wave decrement: 81%
  S-wave decrement: 8.6 ± 2.8 μV
